# Like-named read-outs stand apart in the source and are kept apart here.
# Tested on: spores of Bacillus stearothermophilus and Bacillus subtilis var. niger (Duo-Spore paper spore strips)
smiles,measurement,setting,value
O=[O+][O-] [ozone],ozone exposure time to achieve overkill (100% of the spore strips sterilized),"""flow through"" mode, about 2 liters per minute, 10-12 wt% ozone",60 min
same,ozone exposure time to achieve overkill (100% of the spore strips sterilized),"""pressure"" mode, generator output 10-12 wt% ozone",45 min
same,ozone exposure time to achieve overkill (100% of the spore strips sterilized),"""single fill"" mode, static 10 wt% ozone",90 min

# Reference: US6387241B1, “Method of sterilization using ozone” (priority 1993, dated 2002)
